Experimental data as given in patent publication US8946270B2, “Amido-pyridyl ether compounds and compositions and their use against parasites” (Merial Limited, priority 2011, dated 2015).
Read-outs that look alike come from different tables or passages of the source.

Tests used:
[1] = test system: Haemonchus contortus larvae; experiment: Activity against H. contortus, larval development L1 to L3 (LDA); settings: 5 ppm; 4 days
Protocol: Twenty L1 Haemonchus contortus larvae were added to wells of a microtitre plate containing a nutrient medium and the test compound in DMSO. The microtitre plate was then held at 27° C. where the L1 larvae were allowed to develop. […] Larvae exposed to DMSO and no test compound served as controls

Haematobia irritans = experiment: whole plant or invertebrate; settings: 5 μg/cm^2; for mortality at 5 µg/cm2: Haematobia irritans, read-out: Contact SP Horn Fly PCT Mortality (%)
Protocol: A solution of the test compound was used to treat a filter paper contained within a Petri dish and the filter paper was allowed to evaporate to dryness. A small piece of absorbent cotton moistened with 10% sucrose and ten adult flies (Haematobia irritans or Stomoxys calcitrans) were added to each dish. Dishes were capped and held at room temperature. Assessments were performed at 4 and 24 hours after infestation in comparison with untreated controls.

[2] = test system: microfilaria of Dirofilaria immitis; experiment: Activity against D. immitis microfilaria (Mf); settings: 5 ppm; 5 days
Protocol: Four hundred to six hundred microfilaria of Dirofilaria immitis were added to wells of a microtitre plate containing RPMI media and the test compound in DMSO. The microtitre plate was then held at 37° C. in an environment containing 5% CO2. An assessment was conducted at 5 days to determine survival of the microfilaria. Microfilaria exposed to DMSO and no test compound served as controls.

[3] = test system: Rhipicephalus sanguineus (Brown Dog Tick); experiment: whole plant or invertebrate; settings: for mortality at 200 ppm: Rhipicephalus sanguineus, read-out: Contact SP Rhicicep PCT Mortality (%); for Contact SP Rhicicep PCT Mortality (%): 200 ppm
Description: A solution of the test compound was used to coat the inner wall of glass vials and to treat two filter papers. Once dried, one filter paper was placed in the cap of the vial and the other in the bottom of the vial. Each treated vial was infested with 10 adult Rhipicephalus sanguineus (Brown Dog Tick). […]

SMILES | LDA SP H. cont. PCT Mot M [1] [%] | mortality at 5 µg/cm2 (Haematobia irritans; timepoint 4 hrs) [%] | mortality at 5 µg/cm2 (Haematobia irritans; timepoint 24 hrs) [%] | also measured
CC(C)CNC(=O)c1ccc(CCOc2ccc(OC(F)(F)F)cc2)cn1 [Compound 13] | 95 | 60 | 70 | –
O=C(NCC1CCOCC1)c1ccc(CCOc2ccc(OC(F)(F)F)cc2)cn1 [Compound 14] | 100 | 80 | 100 | Mf sp D. immitis PCT Motili [2]: 88%
O=C(NCC1CC1)c1ccc(CCOc2ccc(C(F)(F)F)cc2)cn1 [Compound 207] | 100 | – | – | Contact SP Horn Fly PCT Mortality (%) (Haematobia irritans; timepoint 4 hrs): 80%; Contact SP Horn Fly PCT Mortality (%) (Haematobia irritans; timepoint 24 hrs): 80%
CCC(C)CNC(=O)c1ccc(CCOc2ccc(C(F)(F)F)cc2)cn1 (stereo not shown) [Compound 219] | 90 | – | – | mortality at 200 ppm ([3]; timepoint 4 hrs): 80%; mortality at 200 ppm ([3]; timepoint 24 hrs): 90%
CC(C)CNC(=O)c1ccc(CCOc2ccc(Cl)c(OC(F)(F)F)c2)cn1 [Compound 223] | 91 | – | – | Contact SP Rhicicep PCT Mortality (%) ([3]; timepoint 4 hrs): 0%; Contact SP Rhicicep PCT Mortality (%) ([3]; timepoint 24 hrs): 0%
